System: KRAS PDC tumor spheroids (HUVEC+MSC), viability
Assay: Anticancer human tumor 254851-301-R-J1-PDC patient-derived colon carcinoma cell line growth inhibition [KRAS2]
Settings: for IC50: curve of first compound; for viability, T/C: stronger effect = lower value
How it was run: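 KRAS-mutant tumor cells were grown as spheroids with HUVEC endothelial cells and human MSCs as stroma. Targeted agents were tested alone and with KRAS pathway inhibitors. Doses started at or near clinical Cmax, or 10 microM, descending half-log.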

[1] = second compound 0.1 µM, first compound 0.01 µM
[2] = second compound 0.1 µM, first compound 0.0316 µM
[3] = second compound 0.1 µM, first compound 0.1 µM
[4] = second compound 0.1 µM, first compound 0.316 µM
[5] = second compound 0.1 µM, first compound 1 µM
[6] = second compound 0.1 µM, first compound 3.16 µM
[7] = second compound 0.316 µM, first compound 0.01 µM
[8] = second compound 0.316 µM, first compound 0.0316 µM
[9] = second compound 0.316 µM, first compound 0.1 µM
[10] = second compound 0.316 µM, first compound 0.316 µM
[11] = second compound 0.316 µM, first compound 1 µM
[12] = second compound 0.316 µM, first compound 3.16 µM
[13] = second compound 1 µM, first compound 0.01 µM
[14] = second compound 1 µM, first compound 0.0316 µM
[15] = second compound 1 µM, first compound 0.1 µM
[16] = second compound 1 µM, first compound 0.316 µM
[17] = second compound 1 µM, first compound 1 µM
[18] = second compound 1 µM, first compound 3.16 µM
[19] = second compound 3.16 µM, first compound 0.01 µM
[20] = second compound 3.16 µM, first compound 0.0316 µM
[21] = second compound 3.16 µM, first compound 0.1 µM
[22] = second compound 3.16 µM, first compound 0.316 µM
[23] = second compound 3.16 µM, first compound 1 µM
[24] = second compound 3.16 µM, first compound 3.16 µM
[25] = second compound 0.1 µM, first compound 10 µM
[26] = second compound 0.316 µM, first compound 10 µM
[27] = second compound 1 µM, first compound 10 µM
[28] = second compound 3.16 µM, first compound 10 µM
[29] = second compound 10 µM, first compound 0.0316 µM
[30] = second compound 10 µM, first compound 0.1 µM
[31] = second compound 10 µM, first compound 0.316 µM
[32] = second compound 10 µM, first compound 1 µM
[33] = second compound 10 µM, first compound 3.16 µM
[34] = second compound 10 µM, first compound 10 µM
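Further: spheroids exposed to compounds for seven days before readout.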
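Wherever viability, T/C is given: 100% = DMSO vehicle control luminescence of the spheroids.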

| SMILES | IC50 (second compound 0.1 µM) [nM] | IC50 (second compound 0.316 µM) [nM] | IC50 (second compound 1 µM) [nM] | IC50 (second compound 3.16 µM) [nM] | viability, T/C [2] [%] | viability, T/C [3] [%] | viability, T/C [4] [%] | viability, T/C [5] [%] | viability, T/C [6] [%] | viability, T/C [8] [%] | viability, T/C [9] [%] | viability, T/C [10] [%] | viability, T/C [11] [%] | viability, T/C [12] [%] | viability, T/C [14] [%] | viability, T/C [15] [%] | viability, T/C [16] [%] | viability, T/C [17] [%] | viability, T/C [18] [%] | viability, T/C [20] [%] | further results |
| --- | --- | --- | --- | --- | --- | --- | --- | --- | --- | --- | --- | --- | --- | --- | --- | --- | --- | --- | --- | --- | --- |
| CC1COCCN1c1cc(-c2ccnn2C)c2ccnc(-c3ccn[nH]3)c2n1 (stereo not given) + C=CC(=O)N1CCN(c2nc(OCC3CCCN3C)nc3c2CCN(c2cccc4cccc(C)c24)C3)CC1CC#N | 300 | 187 | 82.6 | 23.8 | 95.3 | 64.8 | 50.8 | 34 | 21.4 | 97.1 | 58.8 | 41.9 | 32.3 | 22.5 | 53 | 48.8 | 26.3 | 26.5 | 39.7 | 47.1 | IC50 (second compound 0.0316 µM): 207 nM; viability, T/C (second compound 0.0316 µM, first compound 0.01 µM): 122%; viability, T/C (second compound 0.0316 µM, first compound 0.0316 µM): 88.8%; viability, T/C (second compound 0.0316 µM, first compound 0.1 µM): 62.7%; viability, T/C (second compound 0.0316 µM, first compound 0.316 µM): 40.4%; viability, T/C (second compound 0.0316 µM, first compound 1 µM): 32.7%; viability, T/C (second compound 0.0316 µM, first compound 3.16 µM): 20.4%; viability, T/C [1]: 101%; viability, T/C [7]: 105%; viability, T/C [13]: 59.4%; viability, T/C [19]: 57.6%; viability, T/C [21]: 32.8%; viability, T/C [22]: 23.3%; viability, T/C [23]: 18.8%; viability, T/C [24]: 23.8% |
| COc1cc(Nc2ncc3c(n2)-c2ccc(Cl)cc2C(c2c(F)cccc2OC)=NC3)ccc1C(=O)O + CC1OCC2(CCN(c3cnc(Sc4ccnc(N)c4Cl)c(N)n3)CC2)C1N | 87.5 | 79 | 76.4 | 61.4 | 91.7 | 39.8 | 28.8 | 24.9 | 17.1 | 81.1 | 37 | 28.2 | 22.6 | 13.8 | 86.1 | 33.1 | 29.1 | 23.1 | 14.6 | 70.9 | IC50 (second compound 10 µM): 41.4 nM; viability, T/C [25]: 7.2%; viability, T/C [26]: 6.88%; viability, T/C [27]: 7.07%; viability, T/C [21]: 30.7%; viability, T/C [22]: 23.9%; viability, T/C [23]: 21.7%; viability, T/C [24]: 12.3%; viability, T/C [28]: 5.89%; viability, T/C [29]: 58.1%; viability, T/C [30]: 23.1%; viability, T/C [31]: 21.1%; viability, T/C [32]: 19.8%; viability, T/C [33]: 13.8%; viability, T/C [34]: 6.31% |
| CC1COCCN1c1cc(-c2ccnn2C)c2ccnc(-c3ccn[nH]3)c2n1 (stereo not given) + C=CC(=O)N1CCN(c2nc(=O)n(-c3c(C)ccnc3C(C)C)c3nc(-c4c(O)cccc4F)c(F)cc23)C(C)C1 | 299 | 288 | 369 | 79.7 | 96.8 | 65.9 | 50 | 35.4 | 22 | 96.8 | 74.2 | 47.6 | 32.1 | 23.5 | 85.3 | 66.9 | 51.6 | 36.7 | 20.8 | 70.3 | IC50 (second compound 10 µM): 186 nM; viability, T/C [1]: 112%; viability, T/C [7]: 96.5%; viability, T/C [13]: 87.6%; viability, T/C [19]: 74.5%; viability, T/C [21]: 45.2%; viability, T/C [22]: 27.3%; viability, T/C [23]: 29.7%; viability, T/C [24]: 34.8%; viability, T/C (second compound 10 µM, first compound 0.01 µM): 103%; viability, T/C [29]: 87.3%; viability, T/C [30]: 59.5%; viability, T/C [31]: 40.8%; viability, T/C [32]: 29.9%; viability, T/C [33]: 22.5% |
| COc1cc(Nc2ncc3c(n2)-c2ccc(Cl)cc2C(c2c(F)cccc2OC)=NC3)ccc1C(=O)O + CNCc1ccccc1-c1csc(C(C)Nc2nc(C)nc3cc(OC)c(OC)cc23)c1 | 82.8 | 83.4 | 87.1 | < 31.6 | 80 | 40.1 | 29.3 | 26.2 | 18.5 | 77.9 | 39.5 | 31.1 | 27 | 17.7 | 82 | 39.5 | 32.8 | 28.6 | 21.6 | 49.5 | IC50 (second compound 10 µM): < 31.6 nM; viability, T/C [25]: 9.63%; viability, T/C [26]: 9.95%; viability, T/C [27]: 9.92%; viability, T/C [21]: 22.9%; viability, T/C [22]: 20.6%; viability, T/C [23]: 12.5%; viability, T/C [24]: 6.88%; viability, T/C [28]: 4.66%; viability, T/C [29]: 0.15%; viability, T/C [30]: 0.13%; viability, T/C [31]: 0.12%; viability, T/C [32]: 0.1%; viability, T/C [33]: 0.11%; viability, T/C [34]: 0.14% |

— PubChem BioAssay AID1963868 (Molecular Pharmacology Branch, DTP, NCI, 2024)
